{"source": "patent US8716292B2", "about": "“Riminophenazines with 2-(heteroaryl)amino substituents and their anti-microbial activity” (priority 2010, dated 2014)", "data": [{"tested_on": "Mycobacterium tuberculosis H37Rv strains", "test": "In vitro assay for antimicrobial susceptibility (microplate Alamar blue MIC)", "format": "cell-based", "details": "Mycobacterium tuberculosis, H37RV, 7H9, Alamar blue, inhibition ≧90%; read-out: MIC (μg/mL) against H37Rv", "units": {"MIC": "µg/mL"}, "values": [{"smiles": "Clc1ccc(-n2c3c/c(=N\\C4CCOCC4)c(Nc4ncccn4)cc-3nc3ccccc32)cc1", "note": "[TBI-860, 5-(4-Chlorophenyl)-3-(4-tetrahydropyranyl)imino-2-(pyrimidin-2-yl)amino-3,5-dihydrophenazine]", "MIC": 0.029}, {"smiles": "Clc1cccc(-n2c3c/c(=N\\C4CCOCC4)c(Nc4cncnc4)cc-3nc3ccccc32)c1", "note": "[TBI-980, 5-(3-Chlorophenyl)-3-(4-tetrahydropyranyl)imino-2-(pyrimidin-5-yl)amino-3,5-dihydrophenazine]", "MIC": 0.06}]}, {"tested_on": "Mycobacterium tuberculosis H37Rv strains", "test": "In vitro assay for antimicrobial susceptibility (microplate Alamar blue MIC)", "format": "cell-based", "details": "Mycobacterium tuberculosis, H37RV, in vitro, Mycobacterium tuberculosis H37Rv strains; read-out: MIC (μg/mL) against H37Rv", "units": {"MIC": "µg/mL"}, "values": [{"smiles": "COc1ccc(Nc2cc3nc4ccccc4n(-c4ccc(F)cc4)c-3c/c2=N\\C2CCOCC2)cn1", "note": "[TBI-935, 5-(4-Fluorophenyl)-3-(4-tetrahydropyranyl)imino-2-(6-methoxy-3-pyridyl)amino-3,5-dihydrophenazine]", "MIC": 0.205}, {"smiles": "Cc1ccc(Nc2cc3nc4cc(F)ccc4n(-c4ccc(Cl)c(Cl)c4)c-3c/c2=N\\C(C)C)cn1", "note": "[TBI-887, 8-Fluoro-5-(3,4-dichlorophenyl)-3-(1-methylethyl)imino-2-(6-methyl-3-pyridyl)amino-3,5-dihydrophenazine]", "MIC": 0.062}, {"smiles": "Brc1ccc(-n2c3c/c(=N\\C4CCCCC4)c(Nc4cccnc4)cc-3nc3ccccc32)cc1", "note": "[TBI-089, 5-(4-Bromophenyl)-3-cyclohexylimino-2-(3-pyridyl)amino-3,5-dihydrophenazine]", "MIC": 0.021}, {"smiles": "Cc1ccc(Nc2cc3nc4ccccc4n(-c4ccc(OC(F)(F)F)cc4)c-3c/c2=N\\C2CCOCC2)cn1", "note": "[TBI-950, 5-(4-Trifluoromethoxyphenyl)-3-(4-tetrahydropyranyl)imino-2-(6-methyl-3-pyridyl)amino-3,5-dihydrophenazine]", "MIC": 0.035}, {"smiles": "CSc1cccc(-n2c3c/c(=N\\C(C)C)c(Nc4cccnc4)cc-3nc3ccccc32)c1", "note": "[TBI-454, 5-(3-Methylthiophenyl)-3-(1-methylethyl)imino-2-(3-pyridyl)amino-3,5-dihydrophenazine]", "MIC": 0.213}, {"smiles": "Clc1ccc(-n2c3c/c(=N\\C4CCSCC4)c(Nc4cccnc4)cc-3nc3ccccc32)cc1", "note": "[TBI-458]", "MIC": 0.018}, {"smiles": "COc1ncccc1Nc1cc2nc3ccccc3n(-c3ccc(Cl)c(Cl)c3)c-2c/c1=N\\C1CCOCC1", "note": "[TBI-361, 5-(3,4-Dichlorophenyl)-3-(4-tetrahydropyranyl)imino-2-(2-methoxy-3-pyridyl)amino-3,5-dihydrophenazine]", "MIC": 0.08}, {"smiles": "COc1ccc2nc3cc(Nc4cccnc4OC)/c(=N/C(C)C)cc-3n(-c3ccc(Cl)cc3)c2c1", "note": "[TBI-939, 7-Methoxy-5-(4-chlorophenyl)-3-(1-methylethyl)imino-2-(2-methoxy-3-pyridyl)amino-3,5-dihydrophenazine]", "MIC": 0.125}, {"smiles": "COc1ccc(Nc2cc3nc4ccccc4n(-c4ccc(C)cc4)c-3c/c2=N\\C2CCOCC2)cn1", "note": "[TBI-360, 5-(4-Methylphenyl)-3-(4-tetrahydropyranyl)imino-2-(6-methoxy-3-pyridyl)amino-3,5-dihydrophenazine]", "MIC": 0.2}, {"smiles": "CC(C)/N=c1\\cc2n(-c3ccccc3)c3ccccc3nc-2cc1Nc1cccnc1", "note": "[TBI-054, 5-Phenyl-3-(1-methyethyl)imino-2-(3-pyridyl)amino-3,5-dihydrophenazine]", "MIC": 0.03}, {"smiles": "COc1ncccc1Nc1cc2nc3ccccc3n(-c3ccc(F)cc3)c-2c/c1=N\\C1CCSCC1", "note": "[TBI-1042, 5-(4-Fluorophenyl)-3-(4-tetrahydrothiopyranyl)imino-2-(2-methoxy-3-pyridyl)amino-3,5-dihydrophenazine]", "MIC": 0.034}, {"smiles": "Cc1ccc(Nc2cc3nc4ccc(F)cc4n(-c4ccc(OC(F)(F)F)cc4)c-3c/c2=N\\C2CCCCC2)cn1", "note": "[TBI-853, 7-Fluoro-5-(4-trifluoromethoxyphenyl)-3-cyclohexylimino-2-(6-methyl-3-pyridyl)amino-3,5-dihydrophenazine]", "MIC": 0.025}, {"smiles": "COC1CCC(/N=c2\\cc3n(-c4ccccc4C(F)(F)F)c4ccccc4nc-3cc2Nc2cccnc2)CC1", "note": "(stereo not shown) [TBI-739]", "MIC": 0.239}, {"smiles": "Cc1ncccc1Nc1cc2nc3ccccc3n(-c3ccc(Br)cc3)c-2c/c1=N\\C1CCCCC1", "note": "[TBI-508, 5-(4-Bromophenyl)-3-cyclohexylimino-2-(2-methyl-3-pyridyl)amino-3,5-dihydrophenazine]", "MIC": 0.021}]}]}
